We go through 13 compounds from patent US20030176689A1, “Inhibitors of hepatitis C virus protease” (priority 2001, published 2003).

Square brackets hold non-standard residues; d marks the D form. Ends that are not written are not given here. Peptide text beside a SMILES is read from it. Cha = N[C@@H](CC1CCCCC1)C(=O)O; Pen = CC(C)(S)[C@H](N)C(=O)O

As a reminder, the Kd is the concentration at which binding is half-saturated. Broadly, the kcat is the maximal rate divided by the concentration of active sites. For orientation: IC50 means the point on the concentration scale where inhibition reaches its midpoint.

One data set addresses T1, HCV NS3 protease domain (Hepatitis C virus genotype 1a, UniProt P27958).
T1 construct: immobilization of the NS3 protease domain on streptavidin coated beads; made in house; host or cells: E. coli
Description: FAC-MS (frontal affinity chromatography with in-line MS) binding to immobilized NS3. The source says:
An assay using frontal affinity chromatography (FAC) with an in-line mass spectrometer (MS) as described by Schriemer et al. 1998 Agnew. Chem. Int. Ed. 37, 3383-3387 (referred to as FAC-MS) was adapted to identify NS3 protease inhibitors. Briefly, a HCV NS3 protease domain was cloned into a site in a vector that allows for the recombinant NS3 protein to be biotinylated when expressed in E. coli. This provides for immobilization of the NS3 protease domain on streptavidin coated beads which are packed into a miniaturized column. The column is connected in-line to a mass spectrometer. This arrangement facilitates assaying combinatorial compounds individually from a library of peptides for activity in binding the immobilized NS3 protease domain. As the library is continually infused through the column, each compound produces a sigmoidal curve as its elution profile.
The inventors first examined the ability of mutant NS4A peptides to bind to NS3 using the FAC-MS assay described in Example 1. The sequence of the peptides described here is described by the wild-type residue modified, the position of the residue in the wildtype NS4A polypeptide, and the residue substituted at that position. […] “Pen” refers to Penacillamine; “chA” refers to β-cyclohexylalanine; “t” refers to “tert” (so that, for example, “t-L” refers to tert-leucine. […]

In another data set the target is NS3 protease (Hepatitis C virus genotype 1a, UniProt P27958). In words: Rates of NS3 in the presence of short NS4A peptides. In kind it is biochemical, HCV. The following applies: substrate 5A-pNA subsaturating; 66 to 360 μM peptide. As to the method:
The ability of the short peptides to activate the NS3 protease was tested at several concentrations between 66 and 360 μM peptide. The concentration of substrate 5A-pNA was subsaturating.

Data set [1] deals with T2, NS3 (Hepatitis C virus genotype 1a, UniProt P27958). Description: Activation of NS3 by mutant NS4A peptides using 5A-pNA as the substrate. In kind it is biochemical, HCV. The following applies: for kcat: substrate 5A-pNA, extrapolated to infinite NS4A concentration.
T2 sequence (P27958 1027-1207): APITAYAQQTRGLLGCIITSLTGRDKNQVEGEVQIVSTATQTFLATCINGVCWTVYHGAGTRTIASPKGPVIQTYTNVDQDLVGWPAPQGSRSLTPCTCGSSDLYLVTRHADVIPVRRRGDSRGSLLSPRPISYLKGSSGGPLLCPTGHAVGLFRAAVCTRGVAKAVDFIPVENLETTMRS
Description: (§1) Binding of the peptides was then analyzed by enzyme kinetics to detect whether the mutated NS4A peptides activated NS3-catalysed cleavage of substrates individually. Two NS3 substrates were used: 5ApNA (which contains the P side residues (six of them) of the substrate linked to para-nitroaniline) and 5A/5B (which is the natural cleavage junction that is found between the NS5A and NS5B proteins) using conventional methods (see, e.g., Landro et. al. 1997, Biochemistry 36 p9340-9348; and “Enzyme Kinetics” by Irwin Segel pub: Wiley and Sons, New York 1975 Chapter 5). Values in the tables were obtained by extrapolating the Km and kcat values obtained for substrates at several concentrations of NS4A mutant peptides to infinite NS4A concentration. The Km and kcat values were obtained from double reciprocal plots of initial velocity measurements made at several concentrations of substrate and a constant NS4Aconcentration. Peptide concentrations used in calculations in Table 3 are based on those supplied by the facility that synthesized the peptides at the inventors' direction.
In data set [2] the target is T2, NS3. In words: Activation of NS3 by mutant NS4A peptides using 5A/5B as the substrate. The data set is classed as biochemical, HCV. The settings on record: substrate 5A/5B; NS3 batch used for wild-type and V23 mutant peptides.
Description: as §1
In another data set the target is NS3 and wt NS4A (Hepatitis C virus genotype 1a, UniProt P27958). Description: Inhibition of cleavage of 5A-pNA by NS3 and wt NS4A. The data set is classed as biochemical, HCV. The settings on record: for inhibition of cleavage of 5A-pNA by NS3 and wt NS4A: FIG. 12. As to the method:
Again, lower case letters indicate the D-amino acid. Cha represents cyclohexylalanine. The peptides were assayed for inhibition of cleavage of 5A-pNA by NS3 and wt NS4A.

The subject of the next data set is HCV. The following applies: PBMCs from an HCV-infected patient, 4 days, NS3 Western blot; preliminary, first experiment. (A western blot detects proteins with antibodies after separation by electrophoresis.)

T1 sequence (P27958 1027-1208): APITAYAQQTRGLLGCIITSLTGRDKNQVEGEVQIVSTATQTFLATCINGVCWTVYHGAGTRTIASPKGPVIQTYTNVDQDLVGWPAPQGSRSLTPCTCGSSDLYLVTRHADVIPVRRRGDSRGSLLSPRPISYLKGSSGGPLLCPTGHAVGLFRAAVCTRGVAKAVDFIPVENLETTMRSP
NS3 protease, sequence (P27958 1027-1207): as the sequence (P27958 1027-1207) above
NS3 and wt NS4A, sequence (P27958 1027-1207): as above

VVIVGRI [VVIVGRI]: the Kd at HCV NS3 protease domain turned out to be 103 µM. The Rate at NS3 protease is 1.88 µmol/min/mg.

At HCV NS3 protease domain, `CC[C@H](C)[C@H](NC(=O)[C@H](CCCNC(=N)N)NC(=O)CNC(=O)[C@@H](NC(=O)[C@@H](NC(=O)[C@@H](NC(=O)[C@@H](NC(=O)[C@H](CO)NC(=O)CNC(=O)[C@H](CCCCN)NC(=O)[C@@H](N)CCCCN)C(C)(C)S)C(C)C)[C@@H](C)CC)C(C)C)C(=O)N[C@H](C(=O)N[C@@H](CC(C)C)C(=O)N[C@@H](CO)C(=O)NCC(=O)N[C@@H](CCCCN)C(=O)O)C(C)C` [Peptide V23Pen] (H-KKGS[Pen]VIVGRIVLSGK-OH; N-terminus and C-terminus assumed) returned a Kd of 4.7 µM. For the same compound, the kcat on NS3 [1] is 0.0145 ± 0.0015 s⁻¹; on NS3 [2], 0.113 ± 0.01 s⁻¹.

For “KKGSVVIVGRIVLSGK [Wild-type, KKGSVVIVGRIVLSGK, reference compound]”, at NS3 protease, the Rate was 37.4 µmol/min/mg.

Regarding VGRIVL, the Rate on NS3 protease was found to be 1.70 µmol/min/mg.

For Ac-DEMEED-OH [Ac-DEMEED-OH], the “FAC-MS elution profile (late elution indicates NS3 binding)” value on HCV NS3 protease domain (Ac-DEMEEX-OH library randomized at P1, FIG. 2) is “eluted very late”. In addition, the “FAC-MS elution time with a known protease inhibitor added to the library” value at HCV NS3 protease domain (competitive assay, FIG. 3) is listed as “shifted forward”.

In the case of `CC[C@H](C)[C@H](NC(=O)[C@H](CC1CCCCC1)NC(=O)[C@H](CCCNC(=N)N)NC(=O)[C@H](NC(=O)[C@H](CC1CCCCC1)NC(=O)[C@@H](N)CCCNC(=N)N)C(C)C)C(=O)N[C@@H](CC1CCCCC1)C(N)=O` [Peptide 3, R(Cha)vR(Cha)I(Cha)-NH2] (H-R[Cha][dV]R[Cha]I[Cha]-NH2; N-terminus assumed), at NS3 and wt NS4A, it took 163 ± 5 µM to reach half-maximal inhibition (IC50); the “inhibition of cleavage of 5A-pNA by NS3 and wt NS4A” value (“inhibition of cleavage of 5A-pNA” for short) is recorded as “inhibited this reaction”. In addition, the “inhibition of replication of HCV in tissue culture” value in the data set with HCV is listed as “inhibited replication of HCV in tissue culture”.

Turning to W(Cha)vR(Cha)I(Cha)-NH2 [Peptide 1], on NS3 and wt NS4A, the “precipitation in the reaction mixture” value was “caused precipitation in the reaction mixture”; the “inhibition of cleavage of 5A-pNA” value is reported as “inhibited this reaction”.

KKGSFVIVGRIVLSGK [Peptide V23F] came in with a Kd on HCV NS3 protease domain of 3.7 µM. Besides, the “FAC-MS elution (later elution = more tightly bound to NS3)” value on HCV NS3 protease domain (Val23 substituted NS4A peptides, FIG. 4) is recorded as “eluted last”. Besides, the “activation of NS3 catalysed cleavage, rank among peptides mutated at the same position” value at NS3 [1] (position 23 or position 26 mutants) is recorded as “poorest”. For the same compound, the figures for the kcat at NS3 [1] and on NS3 [2] were 0.00782 ± 0.0005 s⁻¹ and 0.0883 ± 0.005 s⁻¹, respectively.

For the compound VIVGRIVL [VIVGRIVL], the Kd at HCV NS3 protease domain was 88 µM. On NS3 protease, the Rate is 1.76 µmol/min/mg.

On HCV NS3 protease domain, IVGRIVL [IVGRIVL] gave a Kd of 103 µM. The Rate on NS3 protease was determined as 1.80 µmol/min/mg.

Compound KKGSCVIVGRIVLSGK [Peptide V23C] yielded a Kd on HCV NS3 protease domain of 4.8 µM. Further, the kcat at NS3 [1] is 0.0197 ± 0.00017 s⁻¹; at NS3 [2], 0.124 ± 0.00033 s⁻¹.

For KKGSLVIVGRIVLSGK [Peptide V23L], the Kd at HCV NS3 protease domain came out at 5.1 µM. In addition, the kcat on NS3 [1] is 0.0157 ± 0.00075 s⁻¹.

Consider FFW(Cha)vR(Cha)-NH2 [Peptide 5], for which, at NS3 and wt NS4A, the “precipitation in the reaction mixture” value was “caused precipitation in the reaction mixture”; the “inhibition of cleavage of 5A-pNA” value is reported as “inhibited this reaction”.
